According to article PMC7215574, “Development of Thiazolidinones as Fungal Carbonic Anhydrase Inhibitors” (International Journal of Molecular Sciences, 2020):
Values after ≈ are worked out from the molar mass of the structure shown.

System: T1, C. albicans 5 strains
T1 construct: 5 clinical isolates
Assay: microbe, parasite or virus in culture
Design: species or system clinical Candida isolates; broth microdilution antifungal MIC, visual growth inhibition, CLSI
Details: Candida albicans, 24 h, read-out: Tested Fungi (MIC Values μg/mL) / C. albicans 5 strains
Experimental: (§1) The in vitro antifungal activities were determined by the broth microdilution method with sabouraud dextrose broth (BBL Microbiology Systems, Cockeysville, MD, USA), as recommended by the by the CLSI [43]. Ninety-six-well polystyrene microtitre plates containing serial dilutions of each compound were inoculated with each microorganism to yield the appropriate density (1–5 × 10^3 cells/mL) in a 100-μL final volume. Each plate included (i) fungi without the addition of the compound, (ii) just the medium, and (iii) just the compound. Topical and systemic antifungal reference drugs, clotrimazole and fluconazole, were inserted in the experiment. The plates were incubated for 24 h at 35 °C. […] Three independent experiments were performed in triplicate. The antimicrobial activity of these thiazolidinones was evaluated versus 24 clinical Gram-positive (S. aureus and S. epidermidis) and Gram-negative (E. coli and Enterobacter spp.) microorganisms. The antifungal activity of these derivatives was then tested versus 16 clinical fungal isolates belonging to the most relevant Candida spp. (C. albicans, C. tropicalis, C. parapsilosis, C. sakè, and C. glabrata). Prior to testing, each isolate was cultured on a selective medium to ensure purity and optimal growth, as previously reported. The isolates were routinely identified by the morphological aspects of colonies and by biochemical identification. The used clinical isolates were collected from specimens of patients at the ‘Azienda Policlinico Umberto I’ (Sapienza University of Rome) and were obtained from hematology/oncology and surgery departments, which also included an intensive care unit. In particular, the samples were isolated from the upper and lower respiratory tract, blood, and indwelling venous catheters; the isolates were identified by conventional methodologies. Participating subjects gave their written informed consent for this study.
In the case of `O=C(N/N=C1\SCC(=O)N1c1cccc(Cl)c1)C(O)c1ccccc1` (stereo not drawn) [3e], the MIC is reported as 8 to 32 µg/mL (≈ 21.3 to 85.1 µM). In the case of `O=C(N/N=C1\SCC(=O)N1c1ccc(Cl)cc1)C(O)c1ccccc1` (stereo not drawn) [3f], the MIC is reported as 4 to 8 µg/mL (≈ 10.6 to 21.3 µM). For `O=C(N/N=C1\SCC(=O)N1c1ccc(Br)cc1)C(O)c1ccccc1` (stereo not drawn) [3i], the MIC was 8 to 16 µg/mL (≈ 19 to 38.1 µM). Molecule `Cc1ccccc1N1C(=O)CS/C1=N\NC(=O)C(O)c1ccccc1` (stereo not drawn) [3j] has an MIC of 8 to 16 µg/mL (≈ 22.5 to 45 µM). Molecule `Cc1cccc(N2C(=O)CS/C2=N\NC(=O)C(O)c2ccccc2)c1` (stereo not drawn) [3k] has an MIC of 8 to 32 µg/mL (≈ 22.5 to 90 µM). Molecule `Cc1ccc(N2C(=O)CS/C2=N\NC(=O)C(O)c2ccccc2)cc1` (stereo not drawn) [3l] has an MIC of 8 to 32 µg/mL (≈ 22.5 to 90 µM).

System: T2, C. glabrata 3 strains
T2 construct: 3 clinical isolates
Assay: microbe, parasite or virus in culture
Design: species or system clinical Candida isolates; broth microdilution antifungal MIC, visual growth inhibition, CLSI
Details: Nakaseomyces glabratus, 24 h, read-out: Tested Fungi (MIC Values μg/mL) / C. glabrata 3 strains
Experimental: as §1
With `O=C(N/N=C1\SCC(=O)N1c1cccc(Cl)c1)C(O)c1ccccc1` (stereo not drawn) [3e] the MIC was 8 to 32 µg/mL (≈ 21.3 to 85.1 µM). Molecule `O=C(N/N=C1\SCC(=O)N1c1ccc(Cl)cc1)C(O)c1ccccc1` (stereo not drawn) [3f] has an MIC of 4 to 8 µg/mL (≈ 10.6 to 21.3 µM). For `O=C(N/N=C1\SCC(=O)N1c1ccc(Br)cc1)C(O)c1ccccc1` (stereo not drawn) [3i], the MIC was 4 to 8 µg/mL (≈ 9.52 to 19 µM). `Cc1ccccc1N1C(=O)CS/C1=N\NC(=O)C(O)c1ccccc1` (stereo not drawn) [3j] gave an MIC of 8 to 32 µg/mL (≈ 22.5 to 90 µM). `Cc1cccc(N2C(=O)CS/C2=N\NC(=O)C(O)c2ccccc2)c1` (stereo not drawn) [3k] showed an MIC of 8 to 32 µg/mL (≈ 22.5 to 90 µM). With `Cc1ccc(N2C(=O)CS/C2=N\NC(=O)C(O)c2ccccc2)cc1` (stereo not drawn) [3l] the MIC was 8 to 32 µg/mL (≈ 22.5 to 90 µM).

System: T3, Candida sake C. sakè 3 strains
T3 construct: 3 clinical isolates
Assay: microbe, parasite or virus in culture
Design: species or system clinical Candida isolates; broth microdilution antifungal MIC, visual growth inhibition, CLSI
Details: Fermentozyma sake, 24 h; read-out: Tested Fungi (MIC Values μg/mL) / C. sakè 3 strains
Experimental: as §1
For `O=C(N/N=C1\SCC(=O)N1c1cccc(Cl)c1)C(O)c1ccccc1` (stereo not drawn) [3e], the MIC was 8 to 32 µg/mL (≈ 21.3 to 85.1 µM). In the case of `Cc1ccccc1N1C(=O)CS/C1=N\NC(=O)C(O)c1ccccc1` (stereo not drawn) [3j], the MIC is reported as 8 to 32 µg/mL (≈ 22.5 to 90 µM). `Cc1cccc(N2C(=O)CS/C2=N\NC(=O)C(O)c2ccccc2)c1` (stereo not drawn) [3k] gave an MIC of 8 to 32 µg/mL (≈ 22.5 to 90 µM). `Cc1ccc(N2C(=O)CS/C2=N\NC(=O)C(O)c2ccccc2)cc1` (stereo not drawn) [3l] gave an MIC of 8 to 32 µg/mL (≈ 22.5 to 90 µM).

Molecular target: T4, CgNce103 (Nakaseomyces glabratus, UniProt Q6FTL6)
T4 construct: gene NCE103; recombinant, obtained in-house as previously reported; beta-class zinc enzyme
T4 sequence (Q6FTL6 1-219): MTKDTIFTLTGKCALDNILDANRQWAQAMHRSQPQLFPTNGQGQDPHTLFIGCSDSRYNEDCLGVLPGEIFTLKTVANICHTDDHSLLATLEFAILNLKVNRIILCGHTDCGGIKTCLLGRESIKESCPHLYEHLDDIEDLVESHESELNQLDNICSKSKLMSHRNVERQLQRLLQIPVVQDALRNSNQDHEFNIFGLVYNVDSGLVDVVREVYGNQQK
Assay: stopped-flow CO2 hydrase assay
Type: biochemical
Details: not given
With `O=C(N/N=C1\SCC(=O)N1c1cccc(Cl)c1)C(O)c1ccccc1` (stereo not drawn) [3e] the Ki was 430 nM. In the case of `O=C(N/N=C1\SCC(=O)N1c1ccc(Cl)cc1)C(O)c1ccccc1` (stereo not drawn) [3f], the Ki is reported as 510 nM. `O=C(N/N=C1\SCC(=O)N1c1ccc(Br)cc1)C(O)c1ccccc1` (stereo not drawn) [3i] gave a Ki of 870 nM. `Cc1cccc(N2C(=O)CS/C2=N\NC(=O)C(O)c2ccccc2)c1` (stereo not drawn) [3k] gave a Ki of 410 nM. `Cc1ccc(N2C(=O)CS/C2=N\NC(=O)C(O)c2ccccc2)cc1` (stereo not drawn) [3l] gave a Ki of 6300 nM.

Molecular target: not listed separately
Assay: stopped-flow CO2 hydrase assay
Type: biochemical, Homo sapiens
Details: read-out: hCA I
With `Cc1ccc(N2C(=O)CS/C2=N\NC(=O)C(O)c2ccccc2)cc1` (stereo not drawn) [3l] the Ki was > 100 µM.

System: T5, C. parapsilosis 2 strains
T5 construct: 2 clinical isolates
Assay: microbe, parasite or virus in culture
Design: species or system clinical Candida isolates; CLSI broth microdilution MIC, Sabouraud dextrose broth, 35 °C, visual complete growth inhibition
Details: Lodderomyces parapsilosis, 24 h, read-out: Tested Fungi (MIC Values μg/mL) / C. parapsilosis 2 strains
Experimental: as §1
For `O=C(N/N=C1\SCC(=O)N1c1cccc(Cl)c1)C(O)c1ccccc1` (stereo not drawn) [3e], the MIC was 32 µg/mL (≈ 85.1 µM). Work on `O=C(N/N=C1\SCC(=O)N1c1ccc(Cl)cc1)C(O)c1ccccc1` (stereo not drawn) [3f] yielded an MIC of 16 µg/mL (≈ 42.6 µM). Work on `O=C(N/N=C1\SCC(=O)N1c1ccc(Br)cc1)C(O)c1ccccc1` (stereo not drawn) [3i] yielded an MIC of 16 µg/mL (≈ 38.1 µM). `Cc1ccccc1N1C(=O)CS/C1=N\NC(=O)C(O)c1ccccc1` (stereo not drawn) [3j] showed an MIC of 16 µg/mL (≈ 45 µM). `Cc1cccc(N2C(=O)CS/C2=N\NC(=O)C(O)c2ccccc2)c1` (stereo not drawn) [3k] showed an MIC of 16 µg/mL (≈ 45 µM). `Cc1ccc(N2C(=O)CS/C2=N\NC(=O)C(O)c2ccccc2)cc1` (stereo not drawn) [3l] showed an MIC of 32 µg/mL (≈ 90 µM).

System: T6, C. tropicalis 3 strains
T6 construct: 3 clinical isolates
Assay: microbe, parasite or virus in culture
Design: species or system clinical Candida isolates; CLSI broth microdilution MIC, Sabouraud dextrose broth, 35 °C, visual complete growth inhibition
Details: Candida tropicalis, 24 h, read-out: Tested Fungi (MIC Values μg/mL) / C. tropicalis 3 strains
Experimental: as §1
`O=C(N/N=C1\SCC(=O)N1c1cccc(Cl)c1)C(O)c1ccccc1` (stereo not drawn) [3e] gave an MIC of 32 µg/mL (≈ 85.1 µM). Work on `O=C(N/N=C1\SCC(=O)N1c1ccc(Cl)cc1)C(O)c1ccccc1` (stereo not drawn) [3f] yielded an MIC of 32 µg/mL (≈ 85.1 µM). Work on `O=C(N/N=C1\SCC(=O)N1c1ccc(Br)cc1)C(O)c1ccccc1` (stereo not drawn) [3i] yielded an MIC of 16 µg/mL (≈ 38.1 µM). Work on `Cc1ccccc1N1C(=O)CS/C1=N\NC(=O)C(O)c1ccccc1` (stereo not drawn) [3j] yielded an MIC of 32 µg/mL (≈ 90 µM). `Cc1cccc(N2C(=O)CS/C2=N\NC(=O)C(O)c2ccccc2)c1` (stereo not drawn) [3k] showed an MIC of 32 µg/mL (≈ 90 µM). Work on `Cc1ccc(N2C(=O)CS/C2=N\NC(=O)C(O)c2ccccc2)cc1` (stereo not drawn) [3l] yielded an MIC of 32 µg/mL (≈ 90 µM).

System: T3, Candida sake C. sakè 3 strains
Assay: microbe, parasite or virus in culture
Design: species or system clinical Candida isolates; CLSI broth microdilution MIC, Sabouraud dextrose broth, 35 °C, visual complete growth inhibition
Details: Fermentozyma sake, 24 h; read-out: Tested Fungi (MIC Values μg/mL) / C. sakè 3 strains
Remark: another data set of the same source
Experimental: as §1
With `O=C(N/N=C1\SCC(=O)N1c1ccc(Cl)cc1)C(O)c1ccccc1` (stereo not drawn) [3f] the MIC was 16 µg/mL (≈ 42.6 µM). With `O=C(N/N=C1\SCC(=O)N1c1ccc(Br)cc1)C(O)c1ccccc1` (stereo not drawn) [3i] the MIC was 16 µg/mL (≈ 38.1 µM).

Molecular target: T7, hCA II (Homo sapiens, UniProt P00918)
T7 construct: gene CA2; recombinant, obtained in-house as previously reported
Assay: stopped-flow CO2 hydrase assay
Type: biochemical
Details: not given
Source text: stopped-flow CO2 hydrase assay on hCA II
For `O=C(N/N=C1\SCC(=O)N1c1cccc(Cl)c1)C(O)c1ccccc1` (stereo not drawn) [3e], the Ki was 50.3 µM. Work on `O=C(N/N=C1\SCC(=O)N1c1ccc(Cl)cc1)C(O)c1ccccc1` (stereo not drawn) [3f] yielded a Ki of 62.9 µM. With `O=C(N/N=C1\SCC(=O)N1c1ccc(Br)cc1)C(O)c1ccccc1` (stereo not drawn) [3i] the Ki was 47.4 µM. Molecule `Cc1cccc(N2C(=O)CS/C2=N\NC(=O)C(O)c2ccccc2)c1` (stereo not drawn) [3k] has a Ki of 79.3 µM.

Molecular target: T8, hCA I (Homo sapiens, UniProt P00915)
T8 construct: gene CA1; recombinant, obtained in-house as previously reported
T8 sequence (P00915 2-261): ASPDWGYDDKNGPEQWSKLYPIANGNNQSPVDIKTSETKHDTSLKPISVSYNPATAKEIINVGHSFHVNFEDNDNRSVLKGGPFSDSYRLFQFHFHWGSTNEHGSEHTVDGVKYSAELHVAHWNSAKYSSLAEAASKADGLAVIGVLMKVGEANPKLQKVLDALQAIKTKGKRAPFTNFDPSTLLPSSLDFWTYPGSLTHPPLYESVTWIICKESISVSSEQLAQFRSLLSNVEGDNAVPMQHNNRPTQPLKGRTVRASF
Assay: stopped-flow CO2 hydrase assay
Type: biochemical
Details: not given
Source text: stopped-flow CO2 hydrase assay on hCA I
With `O=C(N/N=C1\SCC(=O)N1c1cccc(Cl)c1)C(O)c1ccccc1` (stereo not drawn) [3e] the Ki was > 100 µM. With `O=C(N/N=C1\SCC(=O)N1c1ccc(Cl)cc1)C(O)c1ccccc1` (stereo not drawn) [3f] the Ki was > 100 µM. In the case of `O=C(N/N=C1\SCC(=O)N1c1ccc(Br)cc1)C(O)c1ccccc1` (stereo not drawn) [3i], the Ki is reported as > 100 µM. In the case of `Cc1cccc(N2C(=O)CS/C2=N\NC(=O)C(O)c2ccccc2)c1` (stereo not drawn) [3k], the Ki is reported as > 100 µM. For `Cc1ccc(N2C(=O)CS/C2=N\NC(=O)C(O)c2ccccc2)cc1` (stereo not drawn) [3l], the Ki was > 100 µM.
